Results on 39 compounds are retold here after ChEMBL document CHEMBL1938324 (Bioorg Med Chem Lett, 2012).

What is called IC50 is the midpoint of a concentration-inhibition curve. One may read the bioavailability as dose-corrected exposure relative to a reference, in per cent. Usually clearance stands for a measure of how efficiently the substance is removed, as volume per time. High values mean efficient removal, low ones inefficient removal. What is called inhibition is the relative decrease from the control value, in per cent.

The target of data set [1] is T1, Muscarinic acetylcholine receptor M1 (Homo sapiens, UniProt P11229).
T1 sequence (P11229 whole entry): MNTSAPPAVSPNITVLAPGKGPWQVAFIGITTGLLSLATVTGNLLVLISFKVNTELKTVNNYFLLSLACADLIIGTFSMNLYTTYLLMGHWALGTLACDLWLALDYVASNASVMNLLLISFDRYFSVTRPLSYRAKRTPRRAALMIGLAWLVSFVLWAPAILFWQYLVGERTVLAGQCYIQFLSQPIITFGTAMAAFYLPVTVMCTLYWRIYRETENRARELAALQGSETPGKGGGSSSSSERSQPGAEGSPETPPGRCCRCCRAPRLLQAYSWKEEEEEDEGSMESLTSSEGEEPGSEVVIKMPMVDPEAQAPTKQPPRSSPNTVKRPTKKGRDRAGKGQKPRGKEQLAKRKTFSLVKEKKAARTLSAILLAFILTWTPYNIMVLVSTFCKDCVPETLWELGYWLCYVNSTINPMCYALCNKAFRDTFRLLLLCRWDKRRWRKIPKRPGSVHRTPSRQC
The data set is described as follows: Antagonist activity at human muscarinic M1 receptor expressed in CHO cells assessed as inhibition of acetylcholine-induced calcium mobilization by fluorescence assay. It is filed as functional, cell-based. For orientation: Calcium assays in cells follow changes in intracellular calcium, usually with a dye or a luminescent sensor.

The target in data set [2] is T2, Muscarinic acetylcholine receptor M1 (Homo sapiens) (UniProt P11229).
T2 sequence (whole entry): T1 sequence (P11229 whole entry)
The data set is described as follows: Antagonist activity at human muscarinic M1 receptor expressed in CHO cells assessed as residual activity at 30 uM by fluorescence assay. In kind it is functional, cell-based.

The target of data set [3] is T2, Muscarinic acetylcholine receptor M1 (Homo sapiens). In words: Ratio of ML012 IC50 to compound IC50 for human muscarinic M1 receptor.
Data set [4] can be described thus: Oral bioavailability in Sprague-Dawley rat at 10 mg/kg. In kind it is ADME, organism-based. The conditions noted are these: in vivo.
The target in data set [5] is T3, Muscarinic acetylcholine receptor M5 (Homo sapiens, UniProt P08912).
T3 sequence (P08912 whole entry): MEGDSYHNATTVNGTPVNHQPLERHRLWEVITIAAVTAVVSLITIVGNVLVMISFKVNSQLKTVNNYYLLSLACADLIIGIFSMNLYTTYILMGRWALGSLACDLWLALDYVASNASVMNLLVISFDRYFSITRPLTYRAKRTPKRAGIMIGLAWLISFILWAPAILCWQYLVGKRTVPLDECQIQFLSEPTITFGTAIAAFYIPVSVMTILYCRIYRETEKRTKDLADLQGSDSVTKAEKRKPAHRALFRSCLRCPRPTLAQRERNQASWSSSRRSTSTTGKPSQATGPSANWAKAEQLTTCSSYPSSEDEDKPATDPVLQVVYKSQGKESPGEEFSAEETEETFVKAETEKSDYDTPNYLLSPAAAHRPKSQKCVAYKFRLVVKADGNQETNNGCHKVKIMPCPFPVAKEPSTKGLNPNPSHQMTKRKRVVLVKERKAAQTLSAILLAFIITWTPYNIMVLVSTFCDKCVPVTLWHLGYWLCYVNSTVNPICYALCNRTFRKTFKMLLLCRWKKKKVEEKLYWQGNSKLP
The data set is described as follows: Antagonist activity at human muscarinic M5 receptor expressed in CHO cells assessed as inhibition of acetylcholine-induced calcium mobilization by fluorescence assay. It is filed as functional, cell-based.

Data set [6] concerns the target T4, Muscarinic acetylcholine receptor M4 (Homo sapiens, UniProt P08173).
T4 sequence (P08173 whole entry): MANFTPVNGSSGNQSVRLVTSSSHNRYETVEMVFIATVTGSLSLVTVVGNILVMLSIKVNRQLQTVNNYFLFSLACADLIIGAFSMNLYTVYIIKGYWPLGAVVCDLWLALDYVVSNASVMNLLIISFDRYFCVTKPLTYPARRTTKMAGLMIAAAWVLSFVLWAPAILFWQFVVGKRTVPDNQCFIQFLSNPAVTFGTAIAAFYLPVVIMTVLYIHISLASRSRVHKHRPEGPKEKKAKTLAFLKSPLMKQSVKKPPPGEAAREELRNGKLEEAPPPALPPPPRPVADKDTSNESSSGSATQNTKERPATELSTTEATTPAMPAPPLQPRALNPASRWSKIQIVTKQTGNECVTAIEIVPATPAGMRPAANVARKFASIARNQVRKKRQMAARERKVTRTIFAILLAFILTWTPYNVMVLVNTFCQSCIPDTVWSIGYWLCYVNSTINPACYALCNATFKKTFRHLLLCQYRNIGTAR
In words: Antagonist activity at human muscarinic M4 receptor expressed in CHO cells assessed as inhibition of acetylcholine-induced calcium mobilization by fluorescence assay. In kind it is functional, cell-based.

The target of data set [7] is Muscarinic acetylcholine receptor M3 (Homo sapiens, UniProt P20309). The data set is described as follows: Antagonist activity at human muscarinic M3 receptor expressed in CHO cells assessed as inhibition of acetylcholine-induced calcium mobilization by fluorescence assay. It is filed as functional, cell-based.
Another data set has as its system Rattus norvegicus. In words: Half life in iv dosed Sprague-Dawley rat. In kind it is ADME, organism-based. The conditions noted are these: in vivo.
The target in data set [8] is T5, Muscarinic acetylcholine receptor M1 (Rattus norvegicus, UniProt P08482).
T5 sequence (P08482 whole entry): T1 sequence (P11229 whole entry) with A5V, T254S, P309S, R320K, A337G, I413V
The data set is described as follows: Antagonist activity at rat muscarinic M1 receptor expressed in CHO cells assessed as inhibition of acetylcholine-induced calcium mobilization by fluorescence assay. In kind it is functional, cell-based.

Data set [9] in a line: Clearance in iv dosed Sprague-Dawley rat. In kind it is ADME, organism-based. The conditions noted are these: in vivo.
Data set [10] deals with T6, Muscarinic acetylcholine receptor M2 (Homo sapiens, UniProt P08172).
T6 sequence (P08172 whole entry): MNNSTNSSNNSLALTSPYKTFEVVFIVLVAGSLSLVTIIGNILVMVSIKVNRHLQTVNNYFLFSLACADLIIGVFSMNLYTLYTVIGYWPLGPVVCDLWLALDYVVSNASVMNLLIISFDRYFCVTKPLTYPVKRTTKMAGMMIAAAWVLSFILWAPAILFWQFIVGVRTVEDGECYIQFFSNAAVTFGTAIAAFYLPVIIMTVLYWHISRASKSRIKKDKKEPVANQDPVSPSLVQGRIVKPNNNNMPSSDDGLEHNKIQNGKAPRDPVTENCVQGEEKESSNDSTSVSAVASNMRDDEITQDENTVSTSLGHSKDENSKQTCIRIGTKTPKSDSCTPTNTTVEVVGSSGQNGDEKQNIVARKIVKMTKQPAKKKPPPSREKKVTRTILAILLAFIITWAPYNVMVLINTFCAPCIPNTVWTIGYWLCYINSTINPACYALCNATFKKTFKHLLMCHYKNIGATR
In words: Antagonist activity at human muscarinic M2 receptor expressed in CHO cells assessed as inhibition of acetylcholine-induced calcium mobilization by fluorescence assay. It is filed as functional, cell-based.

Data set [11] addresses T2, Muscarinic acetylcholine receptor M1 (Homo sapiens). In words: Inhibition of human muscarinic M1 receptor expressed in CHO cells assessed as inhibition of acetylcholine-induced calcium mobilization at 30 uM by fluorescence assay. In kind it is functional, cell-based.

Where a chain is given by its changes, count along the chain named. Activity calls are given as the source filed them. The rule behind the calls is not given here. Bounds are passed on as bounds.

Sequence of Muscarinic acetylcholine receptor M3 (P20309 whole entry): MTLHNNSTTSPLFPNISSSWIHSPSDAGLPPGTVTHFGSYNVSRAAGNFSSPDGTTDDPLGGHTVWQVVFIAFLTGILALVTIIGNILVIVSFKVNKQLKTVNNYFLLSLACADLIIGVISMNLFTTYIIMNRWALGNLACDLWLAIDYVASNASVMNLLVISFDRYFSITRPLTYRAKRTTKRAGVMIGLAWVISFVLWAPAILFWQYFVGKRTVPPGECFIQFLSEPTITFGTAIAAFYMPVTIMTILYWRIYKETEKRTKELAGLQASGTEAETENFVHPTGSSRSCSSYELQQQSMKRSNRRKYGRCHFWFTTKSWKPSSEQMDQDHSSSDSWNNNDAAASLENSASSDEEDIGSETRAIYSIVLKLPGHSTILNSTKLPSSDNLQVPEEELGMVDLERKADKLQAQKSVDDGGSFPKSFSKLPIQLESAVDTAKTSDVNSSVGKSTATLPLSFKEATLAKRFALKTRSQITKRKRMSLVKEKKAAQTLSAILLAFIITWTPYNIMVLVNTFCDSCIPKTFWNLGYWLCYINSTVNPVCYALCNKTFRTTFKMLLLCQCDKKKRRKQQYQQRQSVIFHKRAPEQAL

Turning to `O=C(CCNS(=O)(=O)c1cccc2nsnc12)N1CCN(c2ccnc(F)c2)CC1`, the IC50 in data set [1] is > 10 µM.
Take `Cc1ccc2nonc2c1S(=O)(=O)NCCC(=O)N1CCN(c2ccncc2)CC1`: the IC50 in data set [1] is > 10 µM.
Take `O=C(C(F)CNS(=O)(=O)c1cccc2nonc12)N1CCN(c2ccncc2)CC1` (racemic): in data set [2], the Activity is 25%.
Take `O=S(=O)(NCCCN1CCN(c2ccncc2)CC1)c1cccc2nsnc12`: the IC50 in data set [1] is > 10 µM. Moreover, the Activity in data set [2] came out at 17%.
In the case of `O=C(CCNS(=O)(=O)c1cccc2nsnc12)N1CCN(c2cc(Cl)ccn2)CC1`, the IC50 in data set [1] worked out at 4.5 µM.
The same measure, in the same setting: for `O=C(CCNS(=O)(=O)c1c(Cl)ccc2nonc12)N1CCN(c2ccc(Br)cn2)CC1` the value was > 10 µM; for `CN(CCC(=O)N1CCN(c2ccncc2)CC1)S(=O)(=O)c1cccc2nsnc12`, > 10 µM.
For the compound `O=C(CCNS(=O)(=O)c1cccc2nsnc12)N1CCN(c2ccc(Br)cn2)CC1`, the IC50 in [1] was determined as 0.32 µM. The Ratio IC50 in [3] stood at 2.
Turning to `Cc1cccc(N2CCN(C(=O)CCNS(=O)(=O)c3cccc4nsnc34)CC2)n1`, the IC50 in data set [1] was > 10 µM.
The same measure, in the same setting: for `O=C(CCNS(=O)(=O)c1cccnc1)N1CCN(c2ccncc2)CC1` the value was > 10 µM; for `O=C(CCNS(=O)(=O)c1cccc2ncccc12)N1CCN(c2ccc(Br)cn2)CC1`, 2.1 µM.
With `O=C(CCNS(=O)(=O)c1cccc2scnc12)N1CCN(c2ccncc2)CC1`, in data set [1], the IC50 was > 10 µM.
On the same count and under the same terms, as for `O=C(CCNS(=O)(=O)c1cccc2nonc12)N1CCN(c2ccc(Br)cn2)CC1`, the figure is 1.1 µM.
As to `Cc1cnccc1N1CCN(C(=O)CCNS(=O)(=O)c2cccc3nsnc23)CC1`, in data set [1], the IC50 was found to be 2 µM.
Still for that read-out and setting: for `O=C(CCNS(=O)(=O)c1cccc2nsnc12)N1CCN(c2nc3ccccc3o2)CC1` the value was > 10 µM.
`Cc1ccc2nonc2c1S(=O)(=O)NCCC(=O)N1CCN(c2ccc(Br)cn2)CC1`: the half-inhibitory concentration (IC50) in data set [1] was > 10 µM.
Same read-out and setting: as for `O=C(CCNS(=O)(=O)c1cccc2nsnc12)N1CCN(c2ncccn2)CC1`, the figure is > 10 µM.
Take `O=C(CCNS(=O)(=O)c1cccc2ncccc12)N1CCN(c2ccncc2)CC1`: the bioavailability in [4] is < 10%. The IC50 is > 30 µM in data set [5]; 0.4 µM in data set [1]; > 30 µM in data set [6]; > 30 µM in data set [7]; 0.18 µM in data set [8]; > 30 µM in data set [10]. In addition, the t1/2 with Rattus norvegicus was 40 min. The same compound yielded a clearance in data set [9] of 77 mL/min/kg.
`O=C(CCNS(=O)(=O)c1cccc2cccnc12)N1CCN(c2ccc(Br)cn2)CC1`: the IC50 in [1] was > 10 µM.
Same read-out and setting: as for `O=C(CCNS(=O)(=O)c1cccc2nsnc12)N1CCN(c2ncc(Cl)cn2)CC1`, the figure is > 10 µM; as for `O=C(CCNS(=O)(=O)c1cccc2ccccc12)N1CCN(c2ccc(Br)cn2)CC1`, > 10 µM.
Consider `O=C(CCNS(=O)(=O)c1cccc2nsnc12)N1CCN(c2ccncc2)CC1`, for which the results for the IC50 in [1] and in data set [8] were 0.69 µM and 0.24 µM, respectively.
As to `O=C(CCNS(=O)(=O)c1cccc(-n2cnnn2)c1)N1CCN(c2ccncc2)CC1`, in data set [1], the IC50 is > 10 µM.
On to `C[C@@H](CC(=O)N1CCN(c2ccncc2)CC1)NS(=O)(=O)c1cccc2nonc12`, for which the inhibition in data set [11] was 30%.
For `O=C(CCNS(=O)(=O)c1cccc2nsnc12)N1CCN(c2ccnc(Cl)c2)CC1`, the IC50 in data set [1] is > 10 µM.
For the compound `O=C(CCNS(=O)(=O)c1ccc(F)c2nonc12)N1CCN(c2ccc(Br)cn2)CC1`, the IC50 in data set [1] is 4.8 µM.
As for `O=C(CCNS(=O)(=O)c1ccc2nsnc2c1)N1CCN(c2ccncc2)CC1`, the IC50 in [1] is > 10 µM.
On to `CN(C)c1cccc2c(S(=O)(=O)NCCC(=O)N3CCN(c4ccncc4)CC3)cccc12`, for which the IC50 in data set [1] was > 10 µM.
Same read-out and setting: for `CC(=O)Nc1nc(C)c(S(=O)(=O)NCCC(=O)N2CCN(c3ccc(Br)cn3)CC2)s1` the value was > 10 µM.
Same read-out and setting: for `O=C(CCNS(=O)(=O)c1cccc2nsnc12)N1CCN(c2cccc(F)n2)CC1` the value was > 10 µM; for `O=C(CCNS(=O)(=O)c1cccc2nsnc12)N1CCN(c2nccs2)CC1`, > 10 µM; for `COc1cccc(S(=O)(=O)NCCC(=O)N2CCN(c3ccc(Br)cn3)CC2)c1`, > 10 µM.
Still for that read-out and setting: for `O=C(CCNS(=O)(=O)c1cccc2nsnc12)N1CCN(c2nc3ccccc3s2)CC1` the value was > 10 µM; for `O=C(CCNS(=O)(=O)c1cccc2nsnc12)N1CCN(c2cccc(Cl)n2)CC1`, > 10 µM.
As for `C[C@H](CC(=O)N1CCN(c2ccncc2)CC1)NS(=O)(=O)c1cccc2nonc12`, the inhibition result in data set [11] is “inactive”.
Consider `O=C(CCNS(=O)(=O)c1cccc2nonc12)N1CCN(c2ccncc2)CC1`, for which the IC50 in [1] was 2.6 µM.
On the same count and under the same terms, for `Cc1ccnc(N2CCN(C(=O)CCNS(=O)(=O)c3cccc4nsnc34)CC2)c1` the value was > 10 µM; for `Cc1ccc2nsnc2c1S(=O)(=O)NCCC(=O)N1CCN(c2ccncc2)CC1`, > 10 µM.
The same measure, in the same setting: as for `O=C(CCNS(=O)(=O)c1cccc2nsnc12)N1CCN(c2ccccn2)CC1`, the figure is > 10 µM.
